Test results published in US20020161007A1, “Non-steroidal modulators of estrogen receptors” (priority 2001, published 2002).

What was measured:
[1] = system: human breast tumor MCF-7 cell line; assay: MTT antiproliferative assay on human MCF-7 cell line; assay type: cell-based; details: Homo sapiens, MCF7; MTT inhibition of proliferation, mean of triplicate determinations; read-out: IC50 Range
Description: EXAMPLE 14—Determination of the antiproliferative effects on human MCF-7 cell lines.
MTT is a yellow tetrazolium salt which is taken up only by metabolically active cells and subsequently cleaved by mitochondrial dehydrogenases to yield a purple crystalline formazan dye. On solubilisation this purple color may be read spectrophotometrically at 570 nm. The absorbance measured at this wavelength is directly proportional to the amount of viable cells present.
Procedure : The human breast tumor MCF-7 cell line was cultured in Eagles minimum essential medium in a 5% CO2 atmosphere with 10% fetal calf serum. The medium was supplemented with 1% non-essential amino acids. The cells were trypsinized and seeded at a density of 1.5×10^4 into a 96-well plate and incubated at 37° C., 5% CO2 atmosphere for 24 h. […] Control wells contained the equivalent volume of the vehicle ethanol (1% v/v). The culture medium was then removed and the cells washed with 100 μl PBS and 50 μl MTT added, to reach a final concentration of 1 mg/ml MTT added. The cells were incubated for 2 h in darkness at […]. At this point solubilisation was begun through the addition of 200 μl DMSO and the cells maintained at room temperature in darkness for 20 min to ensure thorough color diffusion before reading the absorbance. The absorbance value of control cells (no added compound) was set to 100% cell viability. Graphs of absorbance versus cell density per well were prepared to assess cell viability.

estrogen receptor = target: T1, estrogen receptor (Rattus norvegicus, UniProt P06211); assay: Displacement of tritium-labelled estradiol from estrogen receptor-rich uterine cytosol; assay type: binding; details: mean ± SEM
T1 construct: Estrogen receptor-rich cytosol was obtained from the uteri; from tissue; host or cells: uterus of immature Sprague-Dawley rats (cytosol, 100,000 x g supernatant, DCC-treated)
T1 sequence (P06211 1-600): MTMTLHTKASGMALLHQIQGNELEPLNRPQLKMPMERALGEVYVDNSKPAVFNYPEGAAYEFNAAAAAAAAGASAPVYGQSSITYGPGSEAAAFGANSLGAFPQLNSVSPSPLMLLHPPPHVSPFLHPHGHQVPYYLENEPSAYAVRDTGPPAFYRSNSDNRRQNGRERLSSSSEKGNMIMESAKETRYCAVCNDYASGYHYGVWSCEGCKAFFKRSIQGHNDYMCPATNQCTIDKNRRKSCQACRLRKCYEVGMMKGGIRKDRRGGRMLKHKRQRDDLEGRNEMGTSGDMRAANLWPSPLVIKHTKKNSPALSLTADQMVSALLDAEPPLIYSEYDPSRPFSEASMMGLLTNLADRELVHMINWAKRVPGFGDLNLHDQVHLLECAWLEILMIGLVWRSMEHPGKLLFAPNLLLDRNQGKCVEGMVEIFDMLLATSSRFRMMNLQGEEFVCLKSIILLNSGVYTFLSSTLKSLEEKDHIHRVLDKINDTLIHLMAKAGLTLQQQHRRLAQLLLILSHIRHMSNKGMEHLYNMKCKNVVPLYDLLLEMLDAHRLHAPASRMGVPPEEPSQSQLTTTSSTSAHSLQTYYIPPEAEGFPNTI
Experimental: EXAMPLE 16—Determination of the binding affinity of compounds for estrogen receptor
Binding affinity (Ki value) for the estrogen receptor is measured by the ability of the compound to displace tritium-labelled estradiol from the receptor site.
Procedure Estrogen receptor-rich cytosol was obtained from the uteri of humanely sacrificed Sprague-Dawley immature rats (100-150 g mass). Briefly, the uteri were homogenized in 0.01 M sodium phosphate buffer, pH 7.3, containing 0.15 M NaCl, 0.1% gelatin and 0.01% sodium azide. The homogenate was then centrifuged at 100,000×g, […]. The cytosol thus isolated was pretreated with dextran coated charcoal (DCC on ice) and re-isolated using centrifugation, before freezing at−20° C. for later use. The protein concentration of cytosol samples was determined using a standard Bradford protein assay and an appropriate protein concentration range (150 μg protein in a total volume of 0.14 ml) for assay prepared. The required amounts of tritium-labeled (hot) and non-labeled (cold) estradiol were calculated using standard saturation curve techniques. A fresh buffer solution was prepared (Tris[tris(hydroxymethyl)-aminomethane]buffer-10 mM, pH 7.4, containing 1.5 mM EDTA and 3 mM sodium azide). Displacement testing of the compounds was facilitated through the incubation of a buffered solution of a known concentration of the test compound with hot estradiol solution (specific activity 157 Ci/mmol-final conc. 5 nM/ tube), followed by the addition of estrogen receptor-rich cytosol (150 μg protein). Total and non-specific binding control assays were determined in the absence and presence of 14 μl of a 0.2 mM cold estradiol solution respectively, properly corrected for the presence of ethanol in the test (displacement) samples. Samples were vortexed to ensure homogeneity and refrigerated at […] for 16-20 h. After this time the samples were retreated with DCC on ice and centrifuged for ten min at 3500×g. A 170 μl sample was pipetted from each vial and diluted with 10 ml scintillation fluid (Ecoscint). […] The samples thus prepared were counted for radioactivity by liquid scintillation counting. Binding values were obtained as counts per minute (cpm) and were converted to disintegrations per minute (dpm) and computationally analysed using sigmoidal curve fitting programs EBDA and LIGAND [14] to fit the displacement curves and to calculate binding affinity values (Ki) for the test compounds.
The following table illustrates the relative binding affinity values measured for selected compounds, based on their ability to displace radiolabelled estradiol from estrogen receptor-rich cytosol. Values are expressed as the mean determined±SEM.

MCF-7 cells = assay: FACS (propidium iodide) assay for apoptotic induction in MCF-7 cells; assay type: cell-based, human; details: 50 μM, 16 hours
Experimental: EXAMPLE 17—Assay for determining apoptotic induction by compounds
Fluorescence Activated Cell Sorting
Procedure Following treatment of MCF-7 cells with apoptotic compounds, the cells were washed three times with PBS before being trypsinised and centrifuged at 300 g for 5 min. They were then resuspended in 200 μl PBS, made up to 2 ml with ice-cold ethanol (70% v/v) and left to sit on ice for at least 1 h to fix them. Approximately 1 h prior to use they were centrifuged at 300 g for 3 min and the supernatant carefully pipeted off. The pellet was resuspended in 800 μl PBS. RNAase (100 μL; 1mg/mL) and 100 μL of the fluorescent dye propidium iodide (PI; 400 μg/mL) which binds DNA were added. The tubes were vortexed and incubated at 37° C. for 30 min. Flow cytometry was performed with a FACS calibur flow cytometer from Becton Dickinson. FACS data was analysed using the programme Cell Quest.

In the case of `CCC(Cc1ccccc1)=C(c1ccccc1)c1ccc(OCCN(C)C)cc1` (racemic) [Compound 1, 2-Benzyl-1-phenyl-1-[4-(dimethylaminoethoxy)phenyl]but-1-ene], the IC50 [1] is reported as 10 to 15 µM and the Ki (estrogen receptor) is reported as 0.459 ± 0.23 µM.
`CC/C(=C(\Cc1ccccc1)c1ccc(OCCN(C)C)cc1)c1ccccc1` [Compound 6, 1-Benzyl-2-phenyl-[(4-dimethyleaminoethoxy)phenyl]but-1-ene] gave an IC50 [1] of 20 to 25 µM and a Ki (estrogen receptor) of 0.503 ± 0.098 µM.
With `CCC(=C(Cc1ccccc1)c1ccccc1)c1ccc(OCCN2CCCCC2)cc1` [Compound 14, 1-Benzyl-1-phenyl-2-[(4-pipyridinylethoxy)phenyl]but-1-ene] the IC50 [1] was 15 to 20 µM and the Ki (estrogen receptor) was 2.39 ± 0.35 µM.
With `CCC(=C(Cc1ccc(OCCN2CCOCC2)cc1)c1ccccc1)c1ccccc1` [Compound 20] the IC50 [1] was 15 to 20 µM and the Ki (estrogen receptor) was 2.48 ± 0.45 µM.
For `CCC(Cc1ccccc1)=C(c1ccc(O)cc1)c1ccc(OCCN2CCCC2)cc1` [Compound 25, 4-{2-Benzyl-1-[4-(2-pyrrolidin-1-yl-ethoxy)-phenyl]-but-1-enyl}-phenol], the IC50 [1] was 0.01 to 0.1 µM, the “% Cell cycle phases G1” value (MCF-7 cells) was 51.3% and the “% Cell cycle phases G2/M” value (MCF-7 cells) was 21.0%. For the same compound, the “% Cell cycle phases S” value (MCF-7 cells) was 7.6% and the “% Cell cycle phases sub-G1” value (MCF-7 cells; sub-G1 apoptotic peak) was 20.1%.
